# Assay results from patent publication US20150165097A1, “HARDENABLE ANTIMICROBIAL COMPOSITION” (priority 2012, published 2015).
# Counter-ions that a name gives are not always drawn. Like-named read-outs stand apart in the source and are kept apart here.
# Legend:
# [1] = Solubility of antimicrobial agent in plasticizer alone (Example 1); assay type: physicochemical
# Protocol: The solubility of three different antimicrobial agents: benzalkonium chloride (BKC), octenidine dihydrochloride (OCT), and polyhexamethylene biguanide (PHMB); in various plasticizers was evaluated by the following procedure. The antimicrobial agent was added to a small vial; to this, the plasticizer of interest was added. […] In each solution, 1.5% wt/wt of one antimicrobial agent (BKC, OCT, or PHMB) was combined with 98.5% wt/wt of one of each of the following plasticizers: DINCH, acetyl tributyl citrate, trioctyl trimellitate, dioctyl adipate, or polyester adipate.
# [2] = Solubility of antimicrobial agent in plasticizer with heat stabilizer package (Example 2), judged visually; conditions: 1.1 wt %; ESO, DDPP and ZnOct present
# Protocol: To the vial containing the plasticizer and antimicrobial, the appropriate amount (see below) of a master batch solution of PVC heat stabilizer was added. The master batch solution of PVC heat stabilizer included: epoxidized soybean oil (ESO), decyl diphenyl Phosphite (DDPP), and zinc octoate (ZnOct). The solution was allowed to roll overnight at ambient temperature at 60 rpm to determine if the antimicrobial was soluble in that system. Samples were evaluated visually for solubility. […] Samples that were clear were judged to have the cationic antimicrobial completely soluble. Those that were hazy were judged to have the antimicrobial partially soluble. Those that were opaque white were substantially insoluble.
# [3] = Solubility / solution appearance of antimicrobial agent in vehicle before addition of PVC
# Protocol: The antimicrobial agent was added to a small vial. For samples containing CPC or OCT, benzyl alcohol (BzOH, available from Mallinkrodt Baker Inc. of Phillipsburg, N.J.), was also added and the mixture was vortexed. Zinc octoate (ZnOct) was then added to the mixture. In a separate jar, a batch mixture containing DINCH, ESO and di-IDPP was prepared; the solution was allowed to roll until a clear/colorless mixture was obtained with no mixing lines. In a separate jar, the appropriate amount of batch mixture was added into the vial containing the antimicrobial agent, solvent, and zinc octoate (ZnOct). The mixture was vortexed and the solution was allowed to roll at a setting of 60 rpm until a determination was made as to whether or not the antimicrobial was dissolving in the solution.
# The BKC was dispensed into a 25 mL vial. To this was added the DINCH, TIDP, and ZnOct in that order. The vial was then capped and vortexed for several seconds, and then placed on rollers set at 65 rpm in order to promote the dissolution (if possible) of the BKC. […]
# The antimicrobial agents assessed were BKC, BZT, OCT, PCMX, POEtOH, and PHMB. The amount of each antimicrobial agent added was calculated to be equal to the same number of moles of BKC at 1.5 wt % in the plastisol formulation. […]
compound,measurement,setting,value
"CCCCCCCCCCCCCC[N+](C)(C)Cc1ccccc1.[Cl-] [BKC, Benzyl dimethyl tetradecyl ammonium chloride]",Solubility in plasticizer,[1],none of these antimicrobial agents were soluble
same,"Solubility in DINCH, ATC, TOTM, DOA and PEA with heat stabilizing package",[2],soluble
same,"Solubility of BKC in DINCH, TIDP vehicle","[3]; Example 4, in the absence of ZnOct",much less solubility
"CCCCCCCCN=c1ccn(CCCCCCCCCCn2ccc(=NCCCCCCCC)cc2)cc1 [OCT, Octenidine dihydrochloride]",Solubility in plasticizer,[1],none of these antimicrobial agents were soluble
same,"Solubility in DINCH, ATC, TOTM, DOA and PEA with heat stabilizing package",[2],not soluble
Polyhexamethylene biguanide [PHMB],Solubility in plasticizer,"[1]; 1.5% wt/wt antimicrobial agent in 98.5% wt/wt DINCH, acetyl tributyl citrate, trioctyl trimellitate, dioctyl adipate or polyester adipate, rolled 16 hours at 60 rpm",none of these antimicrobial agents were soluble
same,"Solubility in DINCH, ATC, TOTM, DOA and PEA with heat stabilizing package",[2],not soluble
"OCCOc1ccccc1 [POEtOH, 2-phenoxyethanol]",Solubility in MESAMOLL,"[3]; Example 8, BZT: at low concentrations of ZnOct, OCT: even with increasing amounts of ZnOct",well below their solubility limits
